In patent US6756376B1, “Tricyclic azaindolizine derivatives having an sPLA2-inhibitory activities” (Shionogi & Co., Ltd., priority 1999, dated 2004):

Tests used:
[1] = biological target: T1, human type X sPLA2 (Homo sapiens, UniProt O15496); assay: Inhibition test of human secretory phospholipase A2, chromogenic assay, Type X enzyme; type: biochemical; conditions: human type X enzyme (CHO supernatant) 15 μl/well, absorbance change 30 min, OD 405 nm
T1 construct: made in house; unpurified culture supernatant used
T1 sequence (O15496 43-165): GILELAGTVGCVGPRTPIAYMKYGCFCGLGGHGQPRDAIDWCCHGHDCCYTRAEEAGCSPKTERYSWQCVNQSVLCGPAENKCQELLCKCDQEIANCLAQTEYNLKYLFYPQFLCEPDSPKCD
Source text: (§1) In order to identify and evaluate an inhibitor of recombinant human secretory phospholipase A2, the following chromogenic assay is utilized. The assay herein has been applied for high volume screening wherein 96 well microtiterplate is used. A general explanation for such assay is described in “Analysis of Human Synovial Fluid Phospholipase A2 on Short Chain Phosphatidylcholine-Mixed Micelles: Development of a Spectrophotometric Assay Suitable for a Micortiterplate Reader” (Analytical Biochemistry, 204, pp 190-197, 1992 by Laure. J. Reynolds. Lori L. Hughes and Edward A. Dennis: the disclosure of which is incorporated herein for reference. Type V and Type X enzymes: cDNA sequences encoding human type V and Type X sPLA2 (Chen et., al., J. Biol. Chem., 1994. 269, 2365-2368 and Cupillard et., al., J. Biol. Chem., 1997, 272, 15745-15762) were inserted into downstream of promoter of pSVL SV40 Late Promoter Expression Vector (Amersham Pharmacia Biotech K. K.), mammalian cell expression vector, forwardly. The recombinant expression vectors were transfected into CHO host cells by LipofectAMINE regent (Gibco BRL.) according to the attached manual and the cells expressed each of human type V and type X sPLA2 stably. After each expressing cells were cultured in σ-MEM medium including 10% fetal serum albumin for 3 days, the cells supernatant were collected and measured enzymatic activity. 1) 0.106 ml of the substrate solution is put in a centrifugal tube, and nitrogen gas is jetted to remove the solvent. 0.54 ml of Triton-X 100 is added thereto, the mixture is stirred, thereafter it is sonified in a bath type sonification to dissolve. To the resulting product are added 17.8 ml of the reaction buffer and 0.46 ml of DTNB, and 0.18 ml each of the admixture is poured to wells of the 96 well microtiterplate. 2) 10 μl of a test compound (or solvent blank) are added in accordance with alignment of plates which has been previously set. 3) Incubation is effected at 40° C. for 15 minutes. 4) 90 ng/well in case of human type I enzyme, 50 ng/well in case of human type II enzyme, 40 μl/well in case of human type V enzyme, 15 μl/well in case of human type X enzyme were reacted. 5) Changes in absorbancy for 30 minutes for humane type I, type II, and type X enzyme and for 45 min for human type V enzyme, are measured by a plate reader, and inhibition activity was calculated (OD: 405 nm). 6) IC50 was determined by plotting log concentration with respect to inhibition values within 10% to 90% inhibiting range.

[2] = biological target: human type I sPLA2 (Homo sapiens, UniProt P04054); assay: Inhibition test of human secretory phospholipase A2, chromogenic assay, Type I enzyme; type: biochemical; conditions: human type I enzyme 90 ng/well, absorbance change 30 min, OD 405 nm
Source text: (§2) In order to identify and evaluate an inhibitor of recombinant human secretory phospholipase A2, the following chromogenic assay is utilized. The assay herein has been applied for high volume screening wherein 96 well microtiterplate is used. A general explanation for such assay is described in “Analysis of Human Synovial Fluid Phospholipase A2 on Short Chain Phosphatidylcholine-Mixed Micelles: Development of a Spectrophotometric Assay Suitable for a Micortiterplate Reader” (Analytical Biochemistry, 204, pp 190-197, 1992 by Laure. J. Reynolds. Lori L. Hughes and Edward A. Dennis: the disclosure of which is incorporated herein for reference.
Type I enzyme: sPLA2 solution (330 ng/μl) (described in A. Kanda et. al., Biochimica et Biophysica Acta. 1171 (1992) 1-10) is dissolved in the assay (enzyme solution 27 μl is diluted with 1973 μl of the reaction buffer).
(§3) 1) 0.106 ml of the substrate solution is put in a centrifugal tube, and nitrogen gas is jetted to remove the solvent. 0.54 ml of Triton-X 100 is added thereto, the mixture is stirred, thereafter it is sonified in a bath type sonification to dissolve. To the resulting product are added 17.8 ml of the reaction buffer and 0.46 ml of DTNB, and 0.18 ml each of the admixture is poured to wells of the 96 well microtiterplate.
(§4) 2) 10 μl of a test compound (or solvent blank) are added in accordance with alignment of plates which has been previously set.
(§5) 3) Incubation is effected at 40° C. for 15 minutes.
(§6) 4) 90 ng/well in case of human type I enzyme, 50 ng/well in case of human type II enzyme, 40 μl/well in case of human type V enzyme, 15 μl/well in case of human type X enzyme were reacted.
(§7) 5) Changes in absorbancy for 30 minutes for humane type I, type II, and type X enzyme and for 45 min for human type V enzyme, are measured by a plate reader, and inhibition activity was calculated (OD: 405 nm).
(§8) 6) IC50 was determined by plotting log concentration with respect to inhibition values within 10% to 90% inhibiting range.

[3] = biological target: T2, human type V sPLA2 (Homo sapiens, UniProt P39877); assay: Inhibition test of human secretory phospholipase A2, chromogenic assay, Type V enzyme; type: biochemical; conditions: human type V enzyme (CHO supernatant) 40 μl/well, absorbance change 45 min, OD 405 nm
T2 construct: made in house; unpurified culture supernatant used
T2 sequence (P39877 21-138): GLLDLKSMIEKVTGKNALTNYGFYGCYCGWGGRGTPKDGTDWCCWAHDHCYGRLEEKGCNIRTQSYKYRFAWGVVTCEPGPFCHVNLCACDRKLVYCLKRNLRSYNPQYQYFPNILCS
Source text: as §1

[4] = biological target: T3, human type II sPLA2 (Homo sapiens, UniProt P14555); assay: Inhibition test of human secretory phospholipase A2, chromogenic assay, Type II enzyme; type: biochemical; conditions: human type II enzyme 50 ng/well, absorbance change 30 min, OD 405 nm
T3 sequence (P14555 21-144): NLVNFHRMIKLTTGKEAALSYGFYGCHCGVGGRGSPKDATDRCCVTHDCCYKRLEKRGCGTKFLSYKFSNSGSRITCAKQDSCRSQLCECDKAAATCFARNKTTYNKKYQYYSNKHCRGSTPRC
Source text: as §2
Type II enzyme: 1 mg of sPLA2 is dissolved in 1 ml of an enzyme buffer. Thereafter, the solution is maintained at 4° C. In the assay, 5 >l of the solution is diluted with 1995 μl of the reaction buffer to be used.
as §3, §4, §5, §6, §7, §8

Sequence of human type I sPLA2 (P04054 23-148): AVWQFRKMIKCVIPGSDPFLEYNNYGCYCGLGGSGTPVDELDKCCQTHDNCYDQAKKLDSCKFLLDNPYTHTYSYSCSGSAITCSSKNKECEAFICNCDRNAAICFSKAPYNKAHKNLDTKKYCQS

| Compound | IC50 [1] | melting point | IC50 [2] | IC50 [3] | IC50 [4] |
| --- | --- | --- | --- | --- | --- |
| Cc1cc(OCC(=O)O)c2c3c(c(Cc4ccccc4)n2n1)CCC=C3C(N)=O [Compound I-1] | 4 nM | 256 to 258 °C (dec.) | 170 nM | 2 nM | 7 nM |
| Cc1cc(OC(C)C(=O)O)c2c3c(c(Cc4ccccc4)n2n1)CCC=C3C(N)=O (stereo not drawn) [Compound I-2] | 4 nM |  | 79 nM | 3 nM | 15 nM |
| Cc1ccc(Cc2c3c(c4c(OCC(=O)O)cc(C)nn24)C(C(N)=O)=CCC3)cc1 [Compound I-3] | 10 nM |  | 460 nM | 2 nM | 11 nM |
| Cc1ccc(Cc2c3c(c4c(OC(C)C(=O)O)cc(C)nn24)C(C(N)=O)=CCC3)cc1 (stereo not drawn) [Compound I-4] | 7 nM |  | 139 nM | 2 nM | 21 nM |
| Cc1cc(OCC(=O)O)c2c3c(c(Cc4ccc(Cl)cc4)n2n1)CCC=C3C(N)=O [Compound I-5] | 6 nM |  | 147 nM | 1 nM | 8 nM |
| Cc1cc(OC(C)C(=O)O)c2c3c(c(Cc4ccc(Cl)cc4)n2n1)CCC=C3C(N)=O (stereo not drawn) [Compound I-6] | 5 nM |  | 86 nM | 1 nM | 17 nM |
| COc1cccc(Cc2c3c(c4c(OCC(=O)O)cc(C)nn24)C(C(N)=O)=CCC3)c1 [Compound I-7] | 16 nM |  | 215 nM | 2 nM | 10 nM |
| COc1cccc(Cc2c3c(c4c(OC(C)C(=O)O)cc(C)nn24)C(C(N)=O)=CCC3)c1 (stereo not drawn) [Compound I-8] | 12 nM |  | 76 nM | 2 nM | 23 nM |
| NC(=O)C1=CCCc2c1c1c(OCC(=O)O)cc(-c3ccccc3)nn1c2Cc1ccccc1 [Compound I-9] | 1 nM |  | 51 nM | 0.2 nM | 8 nM |
| COc1cccc(Cc2c3c(c4c(OCC(=O)O)cc(-c5ccccc5)nn24)C(C(N)=O)=CCC3)c1 [Compound I-10] | 2 nM |  | 49 nM | 0.2 nM | 6 nM |
| Cc1cn2c(Cc3ccccc3)c3c(c2c(OCC(=O)O)n1)C(C(N)=O)=CCC3 [Compound I-11] | 6 nM |  | 234 nM | 1 nM | 9 nM |
| NC(=O)C1=CCCc2c1c1c(OCC(=O)O)nccn1c2Cc1ccccc1 [Compound I-12] | 4 nM |  | 86 nM | 2 nM | 8 nM |
| Cc1cn2c(Cc3ccccc3)c3c(c2c(OC(C)C(=O)O)n1)C(C(N)=O)=CCC3 (stereo not drawn) [Compound I-13] | 7 nM |  | 93 nM | 4 nM | 19 nM |
| Cc1cn2c(CC3CCCCC3)c3c(c2c(OC(C)C(=O)O)n1)C(C(N)=O)=CCC3 (stereo not drawn) [Compound I-14] | 1 nM |  | 57 nM | 1 nM | 14 nM |
